PubChem BioAssay (NCI)
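Values below derive from 48-hour exposures of cells grown in 96-well plates, with endpoints linearly interpolated between the two concentrations bracketing the appropriate inhibition level. TGI: concentration producing complete growth inhibition.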

Columns and labels:
Experiment in all cases: NCI tumour cell line growth inhibition, 48 h
[1] = test system: CAKI-1 renal
[2] = test system: HOP-62 NSCLC
[3] = test system: 786-0 renal
[4] = test system: SF-295 CNS
[5] = test system: RXF 393 renal
[6] = test system: OVCAR-5 ovarian
[7] = test system: ACHN renal
[8] = test system: A549 NSCLC
[9] = test system: EKVX NSCLC
[10] = test system: OVCAR-8 ovarian
[11] = test system: HL-60(TB) leukemia
[12] = test system: SK-MEL-5 melanoma
[13] = test system: HCC-2998 colon
[14] = test system: NCI-H226 lung
[15] = test system: MDA-N
[16] = test system: NCI-H522 lung
[17] = test system: HT29 colon
[18] = test system: IGROV1 ovarian
[19] = test system: NCI/ADR-RES ovarian
[20] = test system: HOP-92 NSCLC
[21] = test system: NCI-H23 lung
[22] = test system: LOX IMVI melanoma
[23] = test system: CCRF-CEM leukemia
[24] = test system: UO-31 renal
[25] = test system: UACC-62 melanoma
[26] = test system: COLO 205 colon
[27] = test system: HCT-116 colon
[28] = test system: U251 CNS
[29] = test system: SNB-75 CNS
[30] = test system: MDA-MB-435
[31] = test system: SNB-19 CNS
[32] = test system: M14 melanoma
[33] = test system: UACC-257 melanoma
[34] = test system: T-47D breast
[35] = test system: HS 578T breast
[36] = test system: MOLT-4 leukemia
[37] = test system: KM12 colon
[38] = test system: DU-145 prostate
[39] = test system: PC-3 prostate
[40] = test system: MDA-MB-231 breast
[41] = test system: SF-539 CNS
[42] = test system: MCF7 breast
[43] = test system: NCI-H460 lung
[44] = test system: SN12C renal
[45] = test system: OVCAR-3 ovarian
[46] = test system: HCT-15 colon
[47] = test system: RPMI-8226 leukemia
[48] = test system: OVCAR-4 ovarian
[49] = test system: SF-268 CNS
[50] = test system: K-562 leukemia
[51] = test system: SW-620 colon
[52] = test system: SK-OV-3 ovarian
[53] = test system: SK-MEL-2 melanoma
[54] = test system: BT-549 breast
[55] = test system: TK-10 renal
[56] = test system: MALME-3M melanoma
[57] = test system: SK-MEL-28 melanoma
[58] = test system: A498 renal

With `CCCCCCCCNC(=O)C1=C(C)NC(C)=C(C(=O)NCCCCCCCC)C1` the TGI [1] was greater than 100 µM, the TGI [2] was greater than 100 µM and the TGI [3] was greater than 100 µM. The TGI [4] was greater than 100 µM, the TGI [5] was greater than 100 µM and the TGI [6] was greater than 100 µM. The TGI [7] was greater than 100 µM, the TGI [8] was greater than 100 µM and the TGI [9] was greater than 100 µM. It also gave a TGI [10] greater than 100 µM, a TGI [11] greater than 100 µM and a TGI [12] greater than 100 µM. For the same compound, the TGI [13] was greater than 100 µM, the TGI [14] was greater than 100 µM and the TGI [15] was greater than 100 µM. For the same compound, the TGI [16] was greater than 100 µM, the TGI [17] was greater than 100 µM and the TGI [18] was greater than 100 µM. The TGI [19] was greater than 100 µM, the TGI [20] was greater than 100 µM and the TGI [21] was greater than 100 µM. The TGI [22] was greater than 100 µM, the TGI [23] was greater than 100 µM and the TGI [24] was greater than 100 µM. The TGI [25] was greater than 100 µM, the TGI [26] was greater than 100 µM and the TGI [27] was greater than 100 µM. The TGI [28] was greater than 100 µM, the TGI [29] was greater than 100 µM and the TGI [30] was greater than 100 µM. The TGI [31] was greater than 100 µM, the TGI [32] was greater than 100 µM and the TGI [33] was greater than 100 µM. The TGI [34] was greater than 100 µM, the TGI [35] was greater than 100 µM and the TGI [36] was greater than 100 µM. The TGI [37] was greater than 100 µM, the TGI [38] was greater than 100 µM and the TGI [39] was greater than 100 µM. For the same compound, the TGI [40] was greater than 100 µM, the TGI [41] was greater than 100 µM and the TGI [42] was greater than 100 µM. For the same compound, the TGI [43] was greater than 100 µM, the TGI [44] was greater than 100 µM and the TGI [45] was greater than 100 µM. It also gave a TGI [46] greater than 100 µM, a TGI [47] greater than 100 µM and a TGI [48] greater than 100 µM. The TGI [49] was greater than 100 µM, the TGI [50] was greater than 100 µM and the TGI [51] was greater than 100 µM. It also gave a TGI [52] greater than 100 µM, a TGI [53] greater than 100 µM and a TGI [54] greater than 100 µM. It also gave a TGI [55] greater than 100 µM.
Compound `N#CCCN(CCNc1ccccc1)C(=O)Nc1ccc(NC(=O)N(CCC#N)CCNc2ccccc2)cc1` has a TGI [1] greater than 100 µM, a TGI [2] greater than 84.7 µM and a TGI [3] greater than 100 µM. For the same compound, the TGI [4] was greater than 100 µM, the TGI [5] was greater than 83 µM and the TGI [6] was greater than 100 µM. The TGI [7] was greater than 100 µM, the TGI [8] was greater than 100 µM and the TGI [9] was greater than 100 µM. It also gave a TGI [10] greater than 100 µM, a TGI [12] greater than 100 µM and a TGI [13] greater than 100 µM. The TGI [14] was greater than 100 µM, the TGI [15] was greater than 100 µM and the TGI [16] was greater than 66.3 µM. For the same compound, the TGI [17] was greater than 100 µM, the TGI [56] was greater than 100 µM and the TGI [19] was greater than 100 µM. It also gave a TGI [20] greater than 81.5 µM, a TGI [21] greater than 100 µM and a TGI [22] greater than 100 µM. It also gave a TGI [24] greater than 100 µM, a TGI [25] greater than 100 µM and a TGI [26] greater than 100 µM. For the same compound, the TGI [27] was greater than 100 µM, the TGI [28] was greater than 100 µM and the TGI [29] was 72 µM. It also gave a TGI [30] greater than 100 µM, a TGI [31] greater than 100 µM and a TGI [32] greater than 100 µM. For the same compound, the TGI [33] was greater than 100 µM, the TGI [34] was greater than 100 µM and the TGI [35] was greater than 64.2 µM. It also gave a TGI [36] greater than 100 µM, a TGI [37] greater than 100 µM and a TGI [38] greater than 100 µM. It also gave a TGI [39] greater than 100 µM, a TGI [40] greater than 100 µM and a TGI [41] greater than 100 µM. It also gave a TGI [42] greater than 100 µM, a TGI [43] greater than 100 µM and a TGI [44] greater than 100 µM. For the same compound, the TGI [45] was greater than 100 µM, the TGI [46] was greater than 100 µM and the TGI [47] was greater than 100 µM. The TGI [48] was greater than 31.6 µM, the TGI [49] was greater than 79.9 µM and the TGI [50] was greater than 100 µM. The TGI [57] was greater than 100 µM, the TGI [51] was greater than 100 µM and the TGI [52] was greater than 100 µM. The TGI [53] was greater than 100 µM, the TGI [54] was greater than 80.4 µM and the TGI [55] was 98 µM. For the same compound, the TGI [58] was greater than 100 µM.
